Reference: EP4458977A1, “SELF-ASSEMBLING PEPTIDE AMPHIPHILES AS RETROVIRAL TRANSDUCTION ENHANCERS” (Max-Planck-Gesellschaft zur Förderung der Wissenschaften …, priority 2023, dated 2024)
“Also recorded” adds a separate entry of the source. Where a SMILES comes first, the peptide text is derived from it. The star is where a group is joined. Palmitoyl = CCCCCCCCCCCCCCCC(=O)*

What was measured:
[1] = Zeta-potential measurement (dynamic light scattering); type: physicochemical; conditions: for Zeta Potential / mV: 1 mg/mL, PBS
Outline: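 Peptide at 1 mg mL-1 stock was diluted tenfold in 1 mM KCl and measured by dynamic light scattering in triplicate. The derived count rate served as a light-scattering and turbidity indicator of microscopic aggregation.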

[2] = Thioflavin T (ThT) fluorescence assay; type: physicochemical; set-up: key to ThT: + = ThT active; - = no ThT fluorescence observed; conditions: ThT fluorescence; 1 mg/mL, PBS
Outline: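 ThT fluorescence of peptide fibrils judged against a PBS/10% DMSO control; fibrils scored ThT-active when intensity was at least twice that control.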

[3] = ATR-FT-IR determination of β-sheet content; type: physicochemical; conditions: peak integration of parallel β-sheet at 1630 cm-1, 2nd derivative of ATR-IR spectra
Outline: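 From second-derivative spectra, β-sheet amount is the 1630 cm-1 integral over the 1650-1700 cm-1 (native) region. Spectra were taken on solid, lyophilized fibrils via diamond-crystal ATR, averaging 64 scans at 2 cm^-1 resolution.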

[4] = TEM of peptide assemblies (fibril formation / assembly); type: physicochemical; conditions: 1 mg/mL in PBS
Outline: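 Peptides predissolved in DMSO at 10 mg/mL (stock), diluted in PBS to 650 µM or 1 mg/mL final and incubated 1 d at rt (20–25 °C) to form fibrils. Other concentrations obtained by diluting preformed fibrils; assemblies imaged by TEM.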

HeLa cells = assay: Confocal laser scanning microscopy and degradation study with PA1-3 and HeLa cells; type: cell-based; conditions: for association with cellular membranes: HeLa cells, 30 min
Method: 4 µL of the preformed peptide fibrils (1 mg mL^-1) were diluted with 4 µL Proteostat (Enzo Life Science, 1 µL stock in 999 µL PBS) and incubated for 10 min and further diluted with medium to receive a final peptide concentration of 20 µg mL^-1. The nucleus of the HeLa cells was stained with Hoechst 33342 (NucBlue™, Thermo Fisher Scientific). The peptide solution was transferred to the HeLa cells and incubated for 30 min at 37°C before washing three times with PBS. […] For the evaluation of aggregate degradation, the samples were further incubated at 37°C for 3 d and analyzed without any additional washing step. […] The number of aggregates were determined by accumulating the number of aggregates larger than 10 µm^2 in an area of 581.25 × 581.25 µm, repeated in three technical triplicates.

[5] = Fluorescence microscopy of ThT-stained fibrils (µm-sized aggregates); type: physicochemical
Outline: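 Fibrils (1 mg mL^-1) mixed 1:9 with 50 µM ThT, giving 0.1 mg mL^-1 stained fibrils on glass. Imaged under 10x air objective with excitation 480/40 nm and emission 527/30 nm. Fibrils called distinct when no visible structures appeared in fluorescence or brightfield.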

HIV-1 = conditions: 6.5 µM, 1.3 µM, 0.26 µM;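 also: TZM-bl reporter cells exposed to HIV-1 with peptide fibrils, infection read out as β-galactosidase luminescence, compared with virus alone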
Method: HIV-1 Infection Assay with TZM-bl cells: The effect of peptide fibrils on HIV-1 infection was studied via a luminescence assay for β-galactosidase, which was reported by TZM-bl cells upon infection. The HIV-1 infection assay was conducted in three technical replicates and repeated in three independent experiments unless stated otherwise.

Jurkat cells = assay: γ-retroviral transduction assay (GALV-RV, GFP+ cells); type: cell-based
Method: (§1) γ-Retroviral transduction Assay with Jurkat and CD4+ T cells: The effect of peptide fibrils on retroviral transduction of Jurkat cells was analyzed 3 days post transduction by determining the percentage of GFP + cells by flow cytometry. The assay was conducted according prior art procedures.

CD4+ T cells = assay: as above; type: cell-based, Human
Method: as §1
Human CD4+ T cells were isolated from a Buffy coat using RosetteSep™ Human CD4+ Enrichment Cocktail ([…] Technologies) according to manufacturer's protocol. Isolated T cells were activated using Dynabeads™ Human T-Activator CD3/CD28 (GibcoTM) according to manufacturer's protocol in presence of 10 ng mL^-1 IL-2 (Miltenyi Biotec) for three days. After 3 days the magnetic Dynabeads were removed using a magnet and T cells were cultured in presence of 9 ng mL^-1 IL-7 (Miltenyi Biotec) and 10 ng mL^-1 IL-15 (Miltenyi Biotec). After 1 day 5×10^5 T cells were transduced with GALV-γ-RV in absence and presence of PA1, PA2, EF-C (0.26, 1.3 and 6.5 µM) and Vectofusin®-1 (10 µg mL^-1; Miltenyi Biotec), or RetroNectin (20 µg mL^-1; Takara Bio). […] After 3 days GFP+ T cells were analyzed by flow cytometry. Viability was determined using LIVE/DEAD™ Fixable Aqua Dead Cell Stain Kit (ThermoFisher Scientific) according to manufacturer's protocol.

Row | Structure (SMILES) | zeta-potential (in words) [1] | Zeta Potential / mV [1] | ThT [2] | β-sheet content / % [3] [%] | TEM morphology (in words) [4] | association with cellular membranes (HeLa cells) | formation of µm-sized aggregates in aqueous medium / PBS (in words) [5] | enhancement of HIV-1 infection / transduction (in words) (HIV-1) | degraded over the course of 3 days in the presence of HeLa cells (HeLa cells; 4 µg peptide added to 40,000 cells) [%] | transduction enhancement (in words) (Jurkat cells) | transduction enhancement (in words) (CD4+ T cells)
1 | CCCCCCCCCCCCCCCC(=O)N[C@H](C(=O)N[C@H](C(=O)N[C@H](C(=O)N[C@@H](C)C(=O)N[C@@H](C)C(=O)N[C@@H](C)C(=O)N[C@@H](CCC(=O)O)C(=O)N[C@@H](CCC(=O)O)C(=O)N[C@@H](CCC(=O)O)C(N)=O)C(C)C)C(C)C)C(C)C [PA3] (Palmitoyl-VVVAAAEEE-NH2) | negative zeta-potential | -29.8 ± 2.7 mV | + | 61 | distinct fibrils | did not associate with cells | does not form µm-sized aggregates in PBS; also recorded: did not bundle or adopt µm-sized aggregates in PBS | no transduction enhancement | – | – | –
2 | CCCCCCCCCCCCCCCC(=O)N[C@@H](Cc1ccccc1)C(=O)N[C@@H](CCC(N)=O)C(=O)N[C@@H](Cc1ccccc1)C(=O)N[C@@H](CCCCN)C(=O)N[C@@H](Cc1ccccc1)C(=O)N[C@@H](CCCCN)C(=O)N[C@@H](CS)C(N)=O [PA2, C16-FQFKFKC-NH2] (Palmitoyl-FQFKFKC-NH2) | positive zeta-potential | +19.2 ± 3.4 mV | + | 59 | – | association with cellular membranes | formation of µm-sized aggregates; also recorded: microscopic clusters of fibrils were formed | – | 53 | strong transduction enhancement similar to EF-C | activity in the range of commercially available gold-standard enhancers RetroNectin and Vectofusin-1
